Legend:
[1] = molecular target: T1, full-length ABCR (Homo sapiens, UniProt P78363); assay: 8-azido-ATP photoaffinity labeling of membranes from transfected cells; type: binding; parameters: Membranes from transfected cells expressing either full-length ABCR (lanes 1 & 2); expressed in transfected cells; host or cells: transfected cells (COS-1 or EBNA293); conditions: 1 mM ATP added prior to labeling with 1.5 μM 8-azido-[α-32P]ATP; FIG. 5A lane 2
Description: (§1) Preparation of Membranes—Membranes from transfected cells were prepared as described previously (Bungert, S., Molday, L. L., and Molday, R. S. (2001) J Biol Chem 276(26), 23539-46). In some experiments, the protocol was scaled down and the cell homogenate from one or two 10-cm dishes, after passing through a 26-gauge needle (6 times), was centrifuged on a discontinuous gradient consisting of 5% and 60% sucrose for 30 min at 30,000 rpm (60,000×g) in a TLS55 rotor (Beckman Optima TL ultracentrifuge).
(§2) 8-Azido-ATP Photoaffinity Labeling—Membranes (50-150 μg protein) in 50 μl of labeling buffer (20 mM Tris-HCl, pH 7.4, 140 mM NaCl, 5 mM MgCl2) were incubated with 1-4 μM 8-azido-[α-^32P]ATP (Perkin-Elmer Life Science; 20 Ci/mmol) on ice, with gentle shaking, under UV light (254 nm) for 10 min at a distance of 10 cm. Ice-cold 20 mM Tris-HCl, pH 7.4, was added and the membranes were collected by centrifugation (TLA45 rotor, 55000 g, 15 min). The membrane suspension (200 μl in TBS [Tris-HCl, pH 7.4, 140 mM NaCl]) was added to 200 μl of 2% Triton X-100 in TBS, pH 7.4). After 30 min on ice, the cleared extract was mixed with 25 μl antibody coupled to Sepharose 2B for 1-12 h at 4° C. The beads were washed 4 times in TBS containing 0.2% Triton X-100 and eluted twice, 30 μl each, in 4% SDS, 0.2% Triton X-100, TBS. […]

[2] = molecular target: T2, co-expressed N and C halves of ABCR (Homo sapiens, UniProt P78363); assay: as above; type: binding; conditions: 1 mM ATP added prior to labeling with 1.5 μM 8-azido-[α-32P]ATP; FIG. 5A lane 4; C-half labeled
T2 construct: N-half (amino acids 1-1325) and C-half (amino acids 1326-2273) of ABCR; added initiator Met (ATG in the forward primer, read by me) (N); made in house; host or cells: COS-1 (co-transfection)
T2 sequence (P78363 1-1325): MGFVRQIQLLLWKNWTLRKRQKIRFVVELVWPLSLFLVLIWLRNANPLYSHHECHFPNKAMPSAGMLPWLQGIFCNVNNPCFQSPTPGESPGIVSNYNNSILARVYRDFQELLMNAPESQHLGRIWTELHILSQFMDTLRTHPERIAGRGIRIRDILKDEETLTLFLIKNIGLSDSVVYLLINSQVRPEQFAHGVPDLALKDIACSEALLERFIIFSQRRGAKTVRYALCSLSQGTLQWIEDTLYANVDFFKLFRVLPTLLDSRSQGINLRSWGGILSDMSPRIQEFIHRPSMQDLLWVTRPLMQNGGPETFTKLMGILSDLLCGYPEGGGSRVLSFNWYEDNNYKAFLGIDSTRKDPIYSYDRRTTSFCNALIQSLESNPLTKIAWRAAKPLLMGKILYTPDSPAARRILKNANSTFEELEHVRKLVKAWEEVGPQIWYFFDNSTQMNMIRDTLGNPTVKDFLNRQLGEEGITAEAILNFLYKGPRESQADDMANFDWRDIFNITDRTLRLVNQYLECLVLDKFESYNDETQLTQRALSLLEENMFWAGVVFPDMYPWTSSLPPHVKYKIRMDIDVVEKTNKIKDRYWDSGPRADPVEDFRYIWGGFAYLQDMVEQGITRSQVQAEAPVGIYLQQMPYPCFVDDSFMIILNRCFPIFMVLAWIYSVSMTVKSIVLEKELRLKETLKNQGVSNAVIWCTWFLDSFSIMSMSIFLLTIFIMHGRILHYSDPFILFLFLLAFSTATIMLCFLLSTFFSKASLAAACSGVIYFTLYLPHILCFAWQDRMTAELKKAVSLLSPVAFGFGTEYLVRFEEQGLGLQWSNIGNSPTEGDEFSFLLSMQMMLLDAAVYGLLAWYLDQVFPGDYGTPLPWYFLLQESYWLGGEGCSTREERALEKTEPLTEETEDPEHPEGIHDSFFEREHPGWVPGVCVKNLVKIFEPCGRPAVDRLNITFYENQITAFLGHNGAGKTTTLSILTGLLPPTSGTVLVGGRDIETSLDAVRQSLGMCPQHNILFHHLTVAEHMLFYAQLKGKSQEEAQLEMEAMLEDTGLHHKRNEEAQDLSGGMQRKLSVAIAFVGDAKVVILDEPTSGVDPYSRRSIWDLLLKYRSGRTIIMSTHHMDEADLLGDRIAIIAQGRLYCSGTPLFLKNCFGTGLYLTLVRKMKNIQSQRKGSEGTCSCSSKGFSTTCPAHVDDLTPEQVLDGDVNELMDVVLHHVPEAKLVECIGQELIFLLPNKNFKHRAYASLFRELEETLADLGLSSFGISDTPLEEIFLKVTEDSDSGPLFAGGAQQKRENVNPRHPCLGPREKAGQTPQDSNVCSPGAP
T2 sequence (P78363 1326-2273): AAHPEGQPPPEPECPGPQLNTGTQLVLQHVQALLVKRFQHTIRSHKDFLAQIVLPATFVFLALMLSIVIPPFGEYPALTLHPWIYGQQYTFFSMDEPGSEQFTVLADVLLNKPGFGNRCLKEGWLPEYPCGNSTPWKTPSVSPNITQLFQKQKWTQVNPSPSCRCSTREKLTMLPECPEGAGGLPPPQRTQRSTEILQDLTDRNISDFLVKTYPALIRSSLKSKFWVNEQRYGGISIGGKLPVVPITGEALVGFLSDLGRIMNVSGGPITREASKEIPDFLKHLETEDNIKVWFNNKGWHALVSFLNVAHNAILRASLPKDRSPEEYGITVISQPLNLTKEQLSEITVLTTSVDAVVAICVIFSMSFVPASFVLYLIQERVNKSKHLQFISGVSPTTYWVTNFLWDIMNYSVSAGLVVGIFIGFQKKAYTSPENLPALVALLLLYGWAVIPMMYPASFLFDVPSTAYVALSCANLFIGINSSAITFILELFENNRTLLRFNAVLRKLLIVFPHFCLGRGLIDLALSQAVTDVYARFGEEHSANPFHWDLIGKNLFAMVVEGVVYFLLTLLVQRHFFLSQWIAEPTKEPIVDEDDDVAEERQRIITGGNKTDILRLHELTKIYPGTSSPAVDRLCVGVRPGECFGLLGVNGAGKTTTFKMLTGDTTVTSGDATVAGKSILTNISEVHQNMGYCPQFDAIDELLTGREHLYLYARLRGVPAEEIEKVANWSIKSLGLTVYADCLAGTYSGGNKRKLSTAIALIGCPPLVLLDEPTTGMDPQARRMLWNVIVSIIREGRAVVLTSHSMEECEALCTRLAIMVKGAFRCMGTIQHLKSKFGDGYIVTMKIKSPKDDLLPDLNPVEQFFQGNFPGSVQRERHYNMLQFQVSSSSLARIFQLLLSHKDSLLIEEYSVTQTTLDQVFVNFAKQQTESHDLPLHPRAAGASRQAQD
Description: as §1, §2

[3] = molecular target: T3, ABCR (Homo sapiens, UniProt P78363); assay: 8-azido-ATP/ADP trapping in membranes from transfected cells; type: binding; conditions: 5 μM 8-azido-[α-32P]ATP, 37° C.; 800 μM orthovanadate, 50 μM all-trans retinal, or 10 mM MgATP in wash step
T3 construct: Membranes from transfected cells expressing either full-length ABCR (lanes 1 & 2) or co-expressing the N and C halves; expressed in transfected cells; host or cells: transfected cells (COS-1 or EBNA293)
Description: 8-Azido-ATP Trapping—Membranes were incubated with 5 [M 8-azido-[α-^32P]ATP in 50 μl of labeling buffer with or without 800 μM sodium orthovanadate for 10 min at 37° C. All-trans retinal and 50 μM DTT were added where indicated. Binding was stopped by the addition of ice-cold 20 mM Tris-HCl, pH 7.4, the membranes were collected by centrifugation and washed one more time. Samples exposed to orthovanadate were washed in the presence of 800 μM orthovanadate. In some experiments MgATP (10 mM) was included in the wash step, but had no effect. The membranes were suspended in 30 μl of 20 mM Tris-HCl, pH 7.4, irradiated with UV light for 10 min on ice, diluted to 200 μl with TBS, pH 7.4, and solubilized as described above for azido-ATP binding.
To gain more insight into the properties of the NBD of ABCR, trapping experiments were carried out using 8-azido-[α^32P]ATP.

[4] = molecular target: T4, individually expressed C half of ABCR (Homo sapiens, UniProt P78363); assay: Retinal-stimulated ATPase activity of purified protein reconstituted in lipid vesicles; type: biochemical; conditions: individually expressed in COS-1 cells
T4 construct: N-half (amino acids 1-1325) and C-half (amino acids 1326-2273) of ABCR; added initiator Met (ATG in the forward primer, read by me) (N); made in house; host or cells: COS-1
T4 sequence (P78363 1326-2273): T2 sequence (P78363 1326-2273)
Description: (§3) Membranes (from two 10 cm dishes) were solubilized in 0.5 ml of 1% Triton-X100 in Buffer A (140 mM NaCl, 20 mM Tris-HCl, pH 7.4) for 20 min on ice. For ATPase assays, the membrane preparation step was omitted and the cell suspension was solubilized directly in Buffer B (10 mg/ml soybean phospholipids, 10% glycerol, 1 mM dithiothreitol, 100 mM NaCl, 3 mM MgCl2, 50 mM NaHEPES, pH 7.4) containing 18 mM CHAPS. The supernatant after a 10 min centrifugation at 40,000 rpm (TLA100.4 rotor) was mixed with 50 μl Rim3F4 Sepharose 2B for 1 h at 4° C. The beads were washed 6 times in Buffer A containing 0.2% Triton X-100 or Buffer B containing 10 mM CHAPS and eluted with 4% SDS (for electrophoresis) or 0.2 mg/ml Rim3F4 peptide (for reconstitution and determination of ATPase activity). Purified protein (24 μl) was incubated with 6 μl of 50 mg/ml lipid (1:1 mixture of dioleoylphosphatidylethanolamine and brain polar lipid, by weight) and 3 μl n-octylglucoside for 30 min on ice. The mixture was diluted rapidly with 200 μl of Buffer C (1 mM dithiothreitol, 140 mM NaCl, 25 mM NaHEPES, pH 7.4) and passed through a 200 μl Extracti-gel column (Pierce). The flow-through containing the reconstituted protein was used for determination of ATPase activity.
(§4) ATPase activity was measured as described previously (Ahn, J., Wong, J. T., and Molday, R. S. (2000) J Biol Chem 275(27), 20399-405) using 50 μM [α^32P]ATP and thin layer chromatography. The all-trans retinal concentration was determined spectrophotometrically (λ383 nm=42.88 mM^−1 cm^−1). Protein concentration was estimated from the eluate before reconstitution by laser densitometry of Coomassie blue stained gels using bovine serum albumin as a standard. […] Direct protein measurements after reconstitution by densitometry of Western blots was about half of that in the eluate. […]
(§5) ATPase Activity of Expressed N and C Halves—The basal and retinal activated ATPase activity of full-length ABCR and the N and C halves individually or co-expressed in COS-1 cells was determined after immunoaffinity purification and reconstitution into lipid vesicles. […]

[5] = molecular target: T5, individually expressed N half of ABCR containing 1D4 epitope tag (N*) (Homo sapiens, UniProt P78363); assay: as above; type: biochemical; conditions: individually expressed in COS-1 cells, purified on Rho1D4-Sepharose
T5 construct: N-half (amino acids 1-1325) and C-half (amino acids 1326-2273) of ABCR; made in house; host or cells: COS-1
T5 sequence (P78363 1-1325): T2 sequence (P78363 1-1325)
Description: as §3, §4, §5

[6] = molecular target: T2, co-expressed N and C halves of ABCR; assay: as above; type: biochemical; conditions: co-expressed in COS-1 cells, purified on Rim 3F4 column, 50 μM [α32P]ATP
Description: as §3, §4, §5

[7] = molecular target: T1, full-length ABCR; assay: as above; type: biochemical; parameters: Membranes from transfected cells expressing either full-length ABCR (lanes 1 & 2) or co-expressing the N and C halves; expressed in transfected cells; host or cells: transfected cells (COS-1 or EBNA293); conditions: expressed in COS-1 cells, purified on Rim 3F4 column, 50 μM [α32P]ATP
Description: Membranes (from two 10 cm dishes) were solubilized in 0.5 ml of 1% Triton-X100 in Buffer A (140 mM NaCl, 20 mM Tris-HCl, pH 7.4) for 20 min on ice. For ATPase assays, the membrane preparation step was omitted and the cell suspension was solubilized directly in Buffer B (10 mg/ml soybean phospholipids, 10% glycerol, 1 mM dithiothreitol, 100 mM NaCl, 3 mM MgCl2, 50 mM NaHEPES, pH 7.4) containing 18 mM CHAPS. The supernatant after a 10 min centrifugation at 40,000 rpm (TLA100.4 rotor) was mixed with 50 μl Rim3F4 Sepharose 2B for 1 h at 4° C. The beads were washed 6 times in Buffer A containing 0.2% Triton X-100 or Buffer B containing 10 mM CHAPS and eluted with 4% SDS (for electrophoresis) or 0.2 mg/ml Rim3F4 peptide (for reconstitution and determination of ATPase activity). […]
ATPase activity was measured as described previously (Ahn, J., Wong, J. T., and Molday, R. S. (2000) J Biol Chem 275(27), 20399-405) using 50 μM [α^32P]ATP and thin layer chromatography. The all-trans retinal concentration was determined spectrophotometrically (λ383 nm=42.88 mM^−1 cm^−1). […]
as §5

T3 sequence (P78363 whole entry): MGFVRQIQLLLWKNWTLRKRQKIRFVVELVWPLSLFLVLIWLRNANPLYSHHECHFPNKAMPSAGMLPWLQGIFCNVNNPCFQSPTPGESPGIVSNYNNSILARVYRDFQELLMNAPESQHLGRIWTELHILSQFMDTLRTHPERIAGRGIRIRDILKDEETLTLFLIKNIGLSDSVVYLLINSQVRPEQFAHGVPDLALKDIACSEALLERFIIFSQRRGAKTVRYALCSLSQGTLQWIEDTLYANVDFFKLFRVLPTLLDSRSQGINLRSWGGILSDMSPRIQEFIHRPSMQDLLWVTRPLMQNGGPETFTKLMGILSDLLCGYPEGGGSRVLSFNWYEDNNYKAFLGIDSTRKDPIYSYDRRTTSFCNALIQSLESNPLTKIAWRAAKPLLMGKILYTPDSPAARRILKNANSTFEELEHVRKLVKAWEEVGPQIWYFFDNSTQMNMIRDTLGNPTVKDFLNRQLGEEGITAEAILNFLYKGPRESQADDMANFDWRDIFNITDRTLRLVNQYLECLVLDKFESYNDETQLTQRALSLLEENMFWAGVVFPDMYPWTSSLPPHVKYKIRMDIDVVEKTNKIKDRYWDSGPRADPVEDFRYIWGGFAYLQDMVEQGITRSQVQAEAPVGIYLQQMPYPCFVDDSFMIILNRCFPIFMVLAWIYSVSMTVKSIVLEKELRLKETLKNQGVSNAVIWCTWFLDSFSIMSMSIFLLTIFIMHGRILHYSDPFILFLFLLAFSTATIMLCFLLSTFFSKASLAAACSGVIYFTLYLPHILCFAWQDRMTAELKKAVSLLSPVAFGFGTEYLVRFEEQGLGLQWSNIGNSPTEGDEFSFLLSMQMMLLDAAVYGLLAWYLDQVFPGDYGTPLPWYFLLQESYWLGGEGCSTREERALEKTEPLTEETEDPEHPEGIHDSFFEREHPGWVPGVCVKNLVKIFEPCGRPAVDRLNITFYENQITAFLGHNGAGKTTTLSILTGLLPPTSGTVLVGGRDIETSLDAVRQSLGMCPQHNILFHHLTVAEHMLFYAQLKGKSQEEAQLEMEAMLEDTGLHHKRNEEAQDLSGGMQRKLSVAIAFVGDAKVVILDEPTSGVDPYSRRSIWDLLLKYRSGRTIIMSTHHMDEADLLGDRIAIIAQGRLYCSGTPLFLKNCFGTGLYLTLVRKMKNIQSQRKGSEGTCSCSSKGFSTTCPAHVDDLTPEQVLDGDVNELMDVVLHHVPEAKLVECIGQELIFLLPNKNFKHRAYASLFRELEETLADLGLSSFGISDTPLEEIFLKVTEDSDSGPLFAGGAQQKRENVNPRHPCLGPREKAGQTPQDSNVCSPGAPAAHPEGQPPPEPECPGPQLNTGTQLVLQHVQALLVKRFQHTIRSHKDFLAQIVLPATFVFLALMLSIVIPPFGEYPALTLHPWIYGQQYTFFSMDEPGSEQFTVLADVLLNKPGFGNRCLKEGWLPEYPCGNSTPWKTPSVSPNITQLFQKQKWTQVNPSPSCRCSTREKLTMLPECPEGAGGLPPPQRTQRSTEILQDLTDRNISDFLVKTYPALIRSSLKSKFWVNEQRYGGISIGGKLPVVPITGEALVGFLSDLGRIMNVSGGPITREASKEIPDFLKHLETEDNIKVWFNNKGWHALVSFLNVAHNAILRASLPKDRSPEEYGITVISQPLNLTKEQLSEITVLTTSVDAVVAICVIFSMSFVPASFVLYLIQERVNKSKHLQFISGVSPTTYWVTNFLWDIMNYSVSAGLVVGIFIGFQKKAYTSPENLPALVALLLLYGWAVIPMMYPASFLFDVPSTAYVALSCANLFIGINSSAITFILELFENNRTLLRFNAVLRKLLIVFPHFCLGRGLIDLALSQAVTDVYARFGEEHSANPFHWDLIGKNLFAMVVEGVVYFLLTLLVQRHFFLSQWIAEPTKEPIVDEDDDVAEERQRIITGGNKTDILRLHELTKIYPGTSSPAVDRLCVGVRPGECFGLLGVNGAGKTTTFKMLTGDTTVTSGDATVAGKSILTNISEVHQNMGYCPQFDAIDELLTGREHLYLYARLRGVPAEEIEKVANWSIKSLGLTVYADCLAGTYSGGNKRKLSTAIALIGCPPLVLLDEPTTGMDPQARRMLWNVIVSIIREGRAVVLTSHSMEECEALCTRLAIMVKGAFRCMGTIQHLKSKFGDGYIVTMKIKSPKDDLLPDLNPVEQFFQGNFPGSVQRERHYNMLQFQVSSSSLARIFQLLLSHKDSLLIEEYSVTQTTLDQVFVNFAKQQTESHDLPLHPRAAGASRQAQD
T1 sequence (P78363 whole entry): as above

## Nc1ncnc2c1ncn2[C@@H]1O[C@H](COP(=O)(O)OP(=O)(O)OP(=O)(O)O)[C@@H](O)[C@H]1O [ATP]
[1]
  effect on 8-azido-ATP photoaffinity labeling: essentially abolished
[2]
  effect on 8-azido-ATP photoaffinity labeling: essentially abolished

## Nc1ncnc2c1ncn2[C@@H]1O[C@H](COP(=O)(O)OP(=O)([O-])OP(=O)([O-])O)[C@@H](O)[C@H]1O.[Mg+2] [MgATP]
[3]
  effect on 8-azido ATP/ADP trapping: had no effect

## CC1=C(/C=C/C(C)=C/C=C/C(C)=C/C=O)C(C)(C)CCC1 [all-trans retinal]
[4]
  stimulation of ATPase activity by retinal: not stimulated
[5]
  stimulation of ATPase activity by retinal: not stimulated
[6]
  stimulation of ATPase activity by all-trans retinal: 1-2 fold
[3]
  effect on 8-azido ATP/ADP trapping: not dependent on sodium orthovanadate or influenced
[7]
  stimulation of ATPase activity by all-trans retinal: 1-2 fold

## [Na+].[Na+].[Na+].[O]=[V]([O-])([O-])[O-] [sodium orthovanadate]
[3]
  effect on 8-azido ATP/ADP trapping: not dependent

— patent publication US20030224485A1, “Expression system for ABC transporters” (priority 2002, published 2003)
